One may read the IC50 as the concentration at which inhibition is half-maximal.

Read-outs that look alike come from different tables or passages of the source.

Consider seven molecules from US5977386A, “6-thio-substituted paclitaxels” (Bristol-Myers Squibb Company, priority 1997, dated 1999).

Data set [1] relates to HCT-116 human colon carcinoma cells. Description: MTS cytotoxicity assay (72 h exposure). It is filed as cell-based. As to the method: Cytoxicity was assessed in HCT-116 human colon carcinoma cells by MTS (3-(4,5-dimethylthiazol-2-yl)-5-(3-carboxymethoxyphenyl)-2-(4-sulphenyl)-2H-tetrazolium, inner salt) assay as reported in T. L. Riss, et. al., "Comparison of MTT, XTT, and a novel tetrazolium compound MTS for in vitro proliferation and chemosensitivity assays.," Mol. Biol. Cell 3 (Suppl.):184a, 1992. Cells were plated at 4,000 cell/well in 96 well microtiter plates and 24 hours later drugs were added and serial diluted. The cells were incubated at 37° for 72 hours at which time the tetrazolium dye, MTS at 333 μg/ml (final concentration), in combination with the electron coupling agent phenazine methosulfate at 25 μM (final concentration) was added. A dehydrogenase enzyme in live cells reduces the MTS to a form that absorbs light at […] which can be quantitated spectrophotometrically. The greater the absorbance the greater the number of live cells. The results are expressed as an IC50, which is the drug concentration required to inhibit cell proliferation (i.e. absorbance at 450 nm) to 50% of that of untreated control cells. The IC50 values for compounds evaluated in this assay are evaluated in Table I.
^1 Cytotoxicity was determined after a 72 h exposure by MTS assay.
A general note: Formazan colour is commonly taken as a measure of viable cells.

The subject of data set [2] is M109 lung carcinoma. Description: Mice M109 Model (In-Vivo), ip M109 lung carcinoma, median survival. Also noted: species or system mouse. The following applies: ip M109, Balb/c×DBA/2 F1 mice, ip injections days 5 and 8 post-implant, at optimal dose. As for the experimental part:
Balb/c×DBA/2 F1 hybrid mice were implanted intraperitoneally, as described by William Rose in Evaluation of Madison 109 Lung Carcinoma as a Model for Screening Antitumor Drugs, Cancer Treatment Reports, 65, No. 3-4 (1981), with 0.5 mL of a 2% (w/v) brei of M109 lung carcinoma.
Mice were treated with compounds under study by receiving intraperitoneal injections of various doses on days 5 and 8 post-implant. Mice were followed daily for survival until approximately 75 days post-tumor implant. One group of mice per experiment remained untreated and served as the control group.
Median survival times of compound-treated (T) mice were compared to the median survival time of the control (C) mice. The ratio of the two values for each compound-treated group of mice was multiplied by 100 and expressed as a percentage (i.e. % T/C) in the following Table II for representative compounds.
(§1) ^a Optimal dose (mg/kg/inj) if active, otherwise, maximal tolerated
(§2) dose (MTD) or highest dose tested.

Data set [3] relates to M5076 murine sarcoma. Description: sc M5076 murine sarcoma model, tumor growth delay. The following applies: sc M5076, iv on days 1, 3, 5, 7, and 9 post-implant, at optimal dose. It is filed as in vivo. As for the experimental part:
M5076: Taxane derivatives were tested in the M5076 murine sarcoma model using the general materials and methods described by Rose, W. C. in Anticancer Research 6: 557-562, 1986, for subcutaneous M5076 implants, with the following modifications: treatments were administered intravenously on Days 1, 3, 5, 7, and 9 post-tumor implant using eight mice per treatment and untreated control group. Activity was determined based on an increase in lifespan (as described in the preceding reference) of […], and, in particular, on a delay in tumor growth equivalent to at least 1 gross log cell kill (LCK). The latter was calculated as described in Rose, W. C. and Basler, G. A. in In Vivo 4: 391-396, 1990.
as §1, §2

[4] abbreviates: Homo sapiens, HCT-116, 72 h, read-out: Cytotoxicity Assay IC50 against HCT 116 Human colon tumor cell line.
[5] abbreviates: Homo sapiens, HCT-116, read-out: Cytotoxicity Assay IC50 against HCT 116 Human colon tumor cell line.

For the molecule `CC(=O)O[C@H]1C(=O)[C@]2(C)C[C@@H]([S+](C)[O-])[C@H]3OC[C@@]3(OC(C)=O)[C@H]2[C@H](OC(=O)c2ccccc2)[C@]2(O)C[C@H](OC(=O)[C@H](O)[C@@H](NC(=O)c3ccccc3)c3ccccc3)C(C)=C1C2(C)C` (single isomer, unassigned) [Compound 19, 7-deoxy-6β-methyl sulfoxide-paclitaxel], in data set [1] (4320 min, read-out: Cytotoxicity Assay IC50 against HCT 116 Human colon tumor cell line), the 50% inhibitory concentration (IC50) is 50.9 nM. Also, the “Maximum % T/C (ratio of median survival times treated/control x 100)” value in data set [2] was found to be 169%. Further, the “Maximum T-C in LCK (gross log cell kill)” value in data set [3] was found to be 0.4 LCK.
`CC(=O)O[C@H]1C(=O)[C@]2(C)C[C@@H](SC#N)[C@H]3OC[C@@]3(OC(C)=O)[C@H]2[C@H](OC(=O)c2ccccc2)[C@]2(O)C[C@H](OC(=O)[C@H](O)[C@@H](NC(=O)c3ccccc3)c3ccccc3)C(C)=C1C2(C)C` [Compound 17, 7-deoxy-6β-thiocyanato-paclitaxel]: the IC50 in data set [1] (setting [4]) is 3.8 nM. In addition, the “Maximum % T/C (ratio of median survival times treated/control x 100)” value in data set [2] turned out to be 194%. The “Maximum T-C in LCK (gross log cell kill)” value in data set [3] came out at 0.7 LCK.
On to `CC(=O)O[C@H]1C(=O)[C@]2(C)C[C@@H](S(C)(=O)=O)[C@H]3OC[C@@]3(OC(C)=O)[C@H]2[C@H](OC(=O)c2ccccc2)[C@]2(O)C[C@H](OC(=O)[C@H](O)[C@@H](NC(=O)c3ccccc3)c3ccccc3)C(C)=C1C2(C)C` [Compound 21, 7-deoxy6β-methyl sulfone-paclitaxel], for which the IC50 in data set [1] (setting [5]) is over 109 nM. Besides, the “Maximum % T/C (ratio of median survival times treated/control x 100)” value in data set [2] came out at 147%. Moreover, the “Maximum T-C in LCK (gross log cell kill)” value in data set [3] was found to be 0 LCK.
With `C=CCOC(=O)CS[C@@H]1C[C@@]2(C)C(=O)[C@H](OC(C)=O)C3=C(C)[C@@H](OC(=O)[C@H](O)[C@@H](NC(=O)c4ccccc4)c4ccccc4)C[C@@](O)([C@@H](OC(=O)c4ccccc4)[C@@H]2[C@]2(OC(C)=O)CO[C@H]12)C3(C)C` [Compound 42, 7-deoxy-6b-allyl thioacetatepaclitaxel], the half-maximal inhibitory concentration (IC50) in data set [1] (setting [4]) came to 9 nM. In data set [2], the “Maximum % T/C (ratio of median survival times treated/control x 100)” value came out at 106%.
The matching figures for `CC(=O)O[C@H]1C(=O)[C@]2(C)C[C@@H](Sc3ccccc3)[C@H]3OC[C@@]3(OC(C)=O)[C@H]2[C@H](OC(=O)c2ccccc2)[C@]2(O)C[C@H](OC(=O)[C@H](O)[C@@H](NC(=O)c3ccccc3)c3ccccc3)C(C)=C1C2(C)C` [Compound 52, 6b-thiophenyl-7-deoxy-paclitaxel]: 0.58 nM and 114%.
On the same counts, the results for `CC(=O)O[C@H]1C(=O)[C@]2(C)C[C@@H](Sc3cccs3)[C@H]3OC[C@@]3(OC(C)=O)[C@H]2[C@H](OC(=O)c2ccccc2)[C@]2(O)C[C@H](OC(=O)[C@H](O)[C@@H](NC(=O)c3ccccc3)c3ccccc3)C(C)=C1C2(C)C` [Compound 54, 6-b-thio-(2-thienyl)-7-deoxypaclitaxel] are 1.1 nM and 148%.
On to `CC(=O)O[C@H]1C(=O)[C@]2(C)C[C@@H](SCC(=O)O)[C@H]3OC[C@@]3(OC(C)=O)[C@H]2[C@H](OC(=O)c2ccccc2)[C@]2(O)C[C@H](OC(=O)[C@H](O)[C@@H](NC(=O)c3ccccc3)c3ccccc3)C(C)=C1C2(C)C` [Compound 55], for which, in data set [1] (setting [5]), the IC50 is over 108 nM. Also, in data set [2], the “Maximum % T/C (ratio of median survival times treated/control x 100)” value is 107%.
